Data from ChEMBL document CHEMBL4014348, “Design, Multicomponent Synthesis, and Anticancer Activity of a Focused Histone Deacetylase (HDAC) Inhibitor Library with Peptoid-Based Cap Groups” (J Med Chem, 2017).
pIC50: −log10 of the molar value. “And” between values parts separate entries of the source, which are not always exact repeats. Equal values may be shown once. The source made the active and inactive calls. No cut-off for these calls is given here.

Legend:
[1] = biological target: T1, Histone deacetylase 1/2/3 (Homo sapiens) (UniProt Q13547+O15379+Q92769); assay: Inhibition of HDAC1/2/3 in human Cal27 cells assessed as increase in acetylation of histone H3 at 10 uM after 24 hrs by Western blot method; format: cell-based
[2] = biological target: T2, Histone deacetylase 1/2/3/6 (Homo sapiens, UniProt Q13547+O15379+Q9UBN7+Q92769); assay: Inhibition of HDAC1/2/3/6 in human A2780cisR cells using Boc-Lys(epsilon-Ac)-AMC as substrate preincubated for 18 hrs followed by substrate addition measured after 3 hrs by fluorescence assay; format: cell-based
T2 sequence (O15379 whole entry, looked up, one chain of several): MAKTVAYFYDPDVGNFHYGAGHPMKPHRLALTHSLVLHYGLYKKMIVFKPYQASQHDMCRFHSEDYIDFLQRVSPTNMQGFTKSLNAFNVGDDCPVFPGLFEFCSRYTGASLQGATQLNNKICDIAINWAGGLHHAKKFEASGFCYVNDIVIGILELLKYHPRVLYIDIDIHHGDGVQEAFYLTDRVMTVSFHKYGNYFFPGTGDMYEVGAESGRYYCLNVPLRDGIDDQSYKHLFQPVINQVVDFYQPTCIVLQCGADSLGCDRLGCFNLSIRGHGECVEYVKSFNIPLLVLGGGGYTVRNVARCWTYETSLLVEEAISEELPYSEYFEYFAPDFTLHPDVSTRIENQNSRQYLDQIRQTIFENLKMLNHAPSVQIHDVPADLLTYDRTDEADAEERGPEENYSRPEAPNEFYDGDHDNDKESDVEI
T2 sequence (Q13547 whole entry, looked up, one chain of several): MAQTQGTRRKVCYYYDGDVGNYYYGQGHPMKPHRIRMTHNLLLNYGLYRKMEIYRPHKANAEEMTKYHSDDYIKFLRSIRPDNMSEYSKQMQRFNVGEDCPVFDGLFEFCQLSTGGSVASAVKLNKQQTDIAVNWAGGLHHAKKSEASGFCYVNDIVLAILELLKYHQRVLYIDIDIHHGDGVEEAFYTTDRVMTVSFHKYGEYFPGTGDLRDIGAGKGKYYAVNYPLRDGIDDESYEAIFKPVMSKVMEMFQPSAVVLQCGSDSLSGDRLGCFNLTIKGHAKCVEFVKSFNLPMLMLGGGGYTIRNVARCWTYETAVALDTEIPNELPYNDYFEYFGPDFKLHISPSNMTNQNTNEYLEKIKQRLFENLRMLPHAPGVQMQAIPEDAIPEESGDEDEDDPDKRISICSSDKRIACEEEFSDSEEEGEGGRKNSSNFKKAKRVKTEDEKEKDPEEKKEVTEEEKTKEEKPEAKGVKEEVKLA
T2 sequence (Q92769 whole entry, looked up, one chain of several): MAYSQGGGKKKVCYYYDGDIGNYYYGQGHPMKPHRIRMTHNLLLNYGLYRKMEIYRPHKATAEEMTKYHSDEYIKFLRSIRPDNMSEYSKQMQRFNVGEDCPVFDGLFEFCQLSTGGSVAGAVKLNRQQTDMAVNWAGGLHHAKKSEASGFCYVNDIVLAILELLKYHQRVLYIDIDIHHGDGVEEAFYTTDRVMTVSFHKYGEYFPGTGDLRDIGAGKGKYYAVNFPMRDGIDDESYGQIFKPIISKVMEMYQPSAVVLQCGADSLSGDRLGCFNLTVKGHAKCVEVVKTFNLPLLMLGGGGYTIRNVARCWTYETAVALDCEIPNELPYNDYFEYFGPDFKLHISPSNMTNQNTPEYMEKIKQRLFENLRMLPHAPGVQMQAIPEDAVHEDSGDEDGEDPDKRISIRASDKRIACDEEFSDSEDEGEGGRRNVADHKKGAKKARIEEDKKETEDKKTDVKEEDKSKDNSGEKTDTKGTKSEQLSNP

[3] = Apparent permeability in MDCK cells; format: ADME, cell-based, Canis lupus familiaris; settings: dog
A2780 = assay: Cytotoxicity against human A2780 cells assessed as cell survival after 72 hrs by MTT assay; format: functional, cell-based; settings: A2780, 72 h
CAL-27 [4] = assay: Induction of apoptosis in human CAL27 cells at 250 to 500 nM incubated for 48 hrs by flow cytometry assay; format: cell-based; settings: cal-27, 48 h, 0.5 µM
[5] = Cytotoxicity against human Cal27CisR cells assessed as cell survival after 72 hrs by MTT assay; format: functional, cell-based
[6] = biological target: Histone deacetylase 3/Nuclear receptor corepressor 2 (HDAC3/NCoR2) (Homo sapiens, UniProt O15379); assay: Inhibition of full length human recombinant C-terminal His-tagged HDAC3/NcoR2 expressed in baculovirus infected Sf9 insect cells using Boc-Lys(epsilon-Ac)-AMC as substrate measured after 90 mins by fluorescence assay
Chain of Histone deacetylase 3/Nuclear receptor corepressor 2 (HDAC3/NCoR2) (O15379 whole entry): as the sequence (O15379 whole entry, looked up, one chain of several) above
Chain of Histone deacetylase 3/Nuclear receptor corepressor 2 (HDAC3/NCoR2) (Q9Y618 whole entry, further chain): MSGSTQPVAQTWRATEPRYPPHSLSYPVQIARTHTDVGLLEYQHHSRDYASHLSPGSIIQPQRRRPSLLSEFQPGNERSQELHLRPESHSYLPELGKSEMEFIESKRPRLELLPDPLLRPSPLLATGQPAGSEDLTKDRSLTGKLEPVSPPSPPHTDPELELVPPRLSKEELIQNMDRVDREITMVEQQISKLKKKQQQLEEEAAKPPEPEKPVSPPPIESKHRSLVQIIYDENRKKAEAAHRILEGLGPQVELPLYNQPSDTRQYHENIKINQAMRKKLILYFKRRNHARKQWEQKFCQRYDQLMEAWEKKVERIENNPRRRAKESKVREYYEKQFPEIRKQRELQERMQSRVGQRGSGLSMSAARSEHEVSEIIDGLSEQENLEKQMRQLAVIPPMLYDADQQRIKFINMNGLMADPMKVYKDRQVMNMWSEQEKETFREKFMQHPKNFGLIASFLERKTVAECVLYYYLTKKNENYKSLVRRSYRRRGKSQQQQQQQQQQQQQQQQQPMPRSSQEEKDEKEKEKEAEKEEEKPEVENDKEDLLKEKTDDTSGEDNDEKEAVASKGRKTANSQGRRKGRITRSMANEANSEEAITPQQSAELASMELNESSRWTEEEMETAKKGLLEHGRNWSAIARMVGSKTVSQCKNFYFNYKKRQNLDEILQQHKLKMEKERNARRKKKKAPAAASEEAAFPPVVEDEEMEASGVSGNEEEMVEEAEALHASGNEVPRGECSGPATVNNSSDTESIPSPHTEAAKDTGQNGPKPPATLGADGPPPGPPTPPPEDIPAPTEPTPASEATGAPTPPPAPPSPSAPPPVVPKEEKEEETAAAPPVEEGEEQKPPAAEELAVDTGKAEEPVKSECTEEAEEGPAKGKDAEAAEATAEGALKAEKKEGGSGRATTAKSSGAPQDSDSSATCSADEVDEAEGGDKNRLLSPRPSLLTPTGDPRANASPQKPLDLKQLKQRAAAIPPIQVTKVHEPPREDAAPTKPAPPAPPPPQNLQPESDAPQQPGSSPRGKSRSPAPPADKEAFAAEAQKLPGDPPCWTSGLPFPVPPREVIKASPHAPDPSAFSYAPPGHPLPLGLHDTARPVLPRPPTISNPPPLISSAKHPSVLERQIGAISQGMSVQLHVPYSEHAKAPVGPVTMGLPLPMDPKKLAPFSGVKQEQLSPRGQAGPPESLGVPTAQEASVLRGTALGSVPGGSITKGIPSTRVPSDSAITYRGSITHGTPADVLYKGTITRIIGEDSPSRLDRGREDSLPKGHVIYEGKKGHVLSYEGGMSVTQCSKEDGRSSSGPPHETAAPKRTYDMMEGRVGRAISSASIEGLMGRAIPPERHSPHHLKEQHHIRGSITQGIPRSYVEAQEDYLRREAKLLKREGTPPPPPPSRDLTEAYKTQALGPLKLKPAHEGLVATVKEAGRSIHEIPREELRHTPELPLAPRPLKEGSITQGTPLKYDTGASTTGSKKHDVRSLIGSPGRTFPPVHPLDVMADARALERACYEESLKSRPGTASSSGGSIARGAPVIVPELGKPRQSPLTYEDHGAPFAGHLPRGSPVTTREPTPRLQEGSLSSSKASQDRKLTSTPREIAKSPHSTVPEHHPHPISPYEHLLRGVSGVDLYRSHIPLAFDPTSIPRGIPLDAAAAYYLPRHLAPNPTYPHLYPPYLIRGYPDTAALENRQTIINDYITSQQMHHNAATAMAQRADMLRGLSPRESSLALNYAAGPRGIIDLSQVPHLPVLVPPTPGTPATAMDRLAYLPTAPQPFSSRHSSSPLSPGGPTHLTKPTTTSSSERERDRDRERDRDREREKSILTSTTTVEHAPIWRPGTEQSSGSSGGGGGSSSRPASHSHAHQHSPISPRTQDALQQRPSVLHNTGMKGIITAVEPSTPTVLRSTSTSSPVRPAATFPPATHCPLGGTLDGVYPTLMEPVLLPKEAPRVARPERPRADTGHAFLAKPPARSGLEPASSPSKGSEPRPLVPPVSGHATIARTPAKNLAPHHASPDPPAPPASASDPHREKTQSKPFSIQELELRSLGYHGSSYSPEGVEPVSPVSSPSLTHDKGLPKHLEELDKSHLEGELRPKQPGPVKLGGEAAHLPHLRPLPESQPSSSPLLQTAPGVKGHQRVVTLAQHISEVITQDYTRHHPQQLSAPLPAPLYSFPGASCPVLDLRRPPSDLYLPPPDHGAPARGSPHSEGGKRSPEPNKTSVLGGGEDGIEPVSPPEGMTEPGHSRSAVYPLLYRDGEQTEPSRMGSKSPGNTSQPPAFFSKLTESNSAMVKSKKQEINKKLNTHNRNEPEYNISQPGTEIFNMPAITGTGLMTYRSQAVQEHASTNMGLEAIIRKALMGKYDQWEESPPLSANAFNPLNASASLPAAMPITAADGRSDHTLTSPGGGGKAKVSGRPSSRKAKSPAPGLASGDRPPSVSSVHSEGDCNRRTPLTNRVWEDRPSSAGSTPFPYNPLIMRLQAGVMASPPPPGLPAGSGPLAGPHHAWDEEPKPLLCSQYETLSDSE

[7] = biological target: T2, Histone deacetylase 1/2/3/6; assay: Inhibition of HDAC1/2/3/6 in human Cal27 cells assessed as potentiation of cisplatin-induced apoptosis at 250 to 500 nM preincubated for 48 hrs followed by cisplatin addition by flow cytomertry assay; format: cell-based
Histone deacetylase 2 = Histone deacetylase 2 (Homo sapiens, UniProt Q92769); assay: Inhibition of full length human recombinant C-terminal FLAG-tagged HDAC2 expressed in baculovirus infected Sf9 insect cells using Boc-Lys(epsilon-Ac)-AMC as substrate measured after 90 mins by fluorescence assay; format: cell-based
Chain of Histone deacetylase 2 (Q92769 whole entry): as the sequence (Q92769 whole entry, looked up, one chain of several) above

[8] = biological target: T2, Histone deacetylase 1/2/3/6; assay: Inhibition of HDAC1/2/3/6 in human CAL27 cells assessed as potentiation of cisplatin-induced cytotoxicity preincubated for 48 hrs followed by cisplatin addition measured after 72 hrs by MTT assay relative to control; format: cell-based
[9] = biological target: T2, Histone deacetylase 1/2/3/6; assay: Inhibition of HDAC1/2/3/6 in human A2780 cells using Boc-Lys(epsilon-Ac)-AMC as substrate preincubated for 18 hrs followed by substrate addition measured after 3 hrs by fluorescence assay; format: cell-based
[10] = biological target: T2, Histone deacetylase 1/2/3/6; assay: Inhibition of HDAC1/2/3/6 in human Cal27 cells using Boc-Lys(epsilon-Ac)-AMC as substrate preincubated for 18 hrs followed by substrate addition measured after 3 hrs by fluorescence assay; format: cell-based
[11] = biological target: T2, Histone deacetylase 1/2/3/6; assay: Inhibition of HDAC1/2/3/6 in human Cal27CisR cells assessed as potentiation of cisplatin-induced cytotoxicity preincubated for 48 hrs followed by cisplatin addition measured after 72 hrs by MTT assay relative to control; format: cell-based
[12] = biological target: T3, Protein deacetylase HDAC6 (Homo sapiens) (UniProt Q9UBN7); assay: Inhibition of HDAC6 in human Cal27 cells assessed as increase in acetylation of alpha-tubulin at 10 uM after 24 hrs by Western blot method; format: cell-based
T3 sequence (whole entry): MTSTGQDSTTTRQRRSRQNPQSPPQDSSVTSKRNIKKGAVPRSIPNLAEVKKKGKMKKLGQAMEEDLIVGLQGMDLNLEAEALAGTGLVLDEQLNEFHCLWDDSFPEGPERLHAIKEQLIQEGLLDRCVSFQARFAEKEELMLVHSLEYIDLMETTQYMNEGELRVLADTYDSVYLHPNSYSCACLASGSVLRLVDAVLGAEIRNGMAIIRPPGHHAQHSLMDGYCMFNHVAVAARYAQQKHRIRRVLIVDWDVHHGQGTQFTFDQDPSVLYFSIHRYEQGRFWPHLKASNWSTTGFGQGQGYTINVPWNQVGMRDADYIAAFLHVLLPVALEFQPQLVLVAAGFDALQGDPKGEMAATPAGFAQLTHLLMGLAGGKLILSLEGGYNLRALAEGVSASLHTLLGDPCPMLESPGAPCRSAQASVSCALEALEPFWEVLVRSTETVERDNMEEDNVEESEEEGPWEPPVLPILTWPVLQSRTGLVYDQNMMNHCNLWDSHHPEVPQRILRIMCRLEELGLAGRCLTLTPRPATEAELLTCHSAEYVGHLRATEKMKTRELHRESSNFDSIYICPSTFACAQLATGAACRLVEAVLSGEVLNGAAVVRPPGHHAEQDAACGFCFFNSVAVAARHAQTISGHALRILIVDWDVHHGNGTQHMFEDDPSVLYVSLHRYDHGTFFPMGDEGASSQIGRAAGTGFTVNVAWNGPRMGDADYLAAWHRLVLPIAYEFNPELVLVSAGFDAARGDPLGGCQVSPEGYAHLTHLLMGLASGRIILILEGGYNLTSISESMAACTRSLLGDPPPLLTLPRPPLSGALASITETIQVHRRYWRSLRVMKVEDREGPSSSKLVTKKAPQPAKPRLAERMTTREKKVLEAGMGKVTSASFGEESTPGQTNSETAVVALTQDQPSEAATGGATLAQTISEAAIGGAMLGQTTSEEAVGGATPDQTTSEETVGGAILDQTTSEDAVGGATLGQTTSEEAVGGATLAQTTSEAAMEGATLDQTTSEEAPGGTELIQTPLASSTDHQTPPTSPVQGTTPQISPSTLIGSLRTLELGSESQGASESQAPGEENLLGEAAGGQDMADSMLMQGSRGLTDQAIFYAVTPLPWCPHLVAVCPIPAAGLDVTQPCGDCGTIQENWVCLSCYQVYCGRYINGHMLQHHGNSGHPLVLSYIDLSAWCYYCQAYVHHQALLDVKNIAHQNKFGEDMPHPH

[13] = biological target: T4, Protein deacetylase HDAC6 (Homo sapiens, UniProt Q9UBN7); assay: Inhibition of N-terminal GST-tagged recombinant human HDAC6 expressed in baculovirus infected Sf9 insect cells using Z-(Ac)Lys-AMC as substrate measured after 90 mins by fluorescence assay
T4 sequence (Q9UBN7 whole entry): T3 sequence (whole entry)

[14] = biological target: T3, Protein deacetylase HDAC6 (Homo sapiens); assay: Inhibition of HDAC6 in human Cal27CisR cells assessed as increase in acetylation of alpha-tubulin at 10 uM after 24 hrs by Western blot method; format: cell-based
A2780cisR = assay: Cytotoxicity against human A2780cisR cells assessed as cell survival after 72 hrs by MTT assay; format: functional, cell-based
[15] = Induction of apoptosis in human Cal27CisR cells at 250 to 500 nM incubated for 48 hrs by flow cytometry assay; format: cell-based; settings: 0.5 µM
[16] = biological target: T2, Histone deacetylase 1/2/3/6; assay: Inhibition of HDAC1/2/3/6 in human Cal27CisR cells using Boc-Lys(epsilon-Ac)-AMC as substrate preincubated for 18 hrs followed by substrate addition measured after 3 hrs by fluorescence assay; format: cell-based
[17] = biological target: T2, Histone deacetylase 1/2/3/6; assay: Inhibition of HDAC1/2/3/6 in human Cal27CisR cells assessed as potentiation of cisplatin-induced apoptosis at 250 to 500 nM preincubated for 48 hrs followed by cisplatin addition by flow cytomertry assay; format: cell-based
[18] = biological target: T1, Histone deacetylase 1/2/3 (Homo sapiens); assay: Inhibition of HDAC1/2/3 in human Cal27CisR cells assessed as increase in acetylation of histone H3 at 10 uM after 24 hrs by Western blot method; format: cell-based
CAL-27 [19] = assay: Cytotoxicity against human CAL27 cells assessed as cell survival after 72 hrs by MTT assay; format: functional, cell-based; settings: CAL-27, 72 h
[20] = Apparent permeability in human Caco2 cells; format: ADME, cell-based, Caco-2; settings: caco-2
Histone deacetylase 1 = Histone deacetylase 1 (Homo sapiens, UniProt Q13547); assay: Inhibition of C-terminal FLAG/His-tagged recombinant human HDAC1 expressed in baculovirus infected Sf9 insect cells using Z-(Ac)Lys-AMC as substrate measured after 90 mins by fluorescence assay
Chain of Histone deacetylase 1 (Q13547 whole entry): as the sequence (Q13547 whole entry, looked up, one chain of several) above

Histone deacetylase 8 = biological target: T5, Histone deacetylase 8 (Homo sapiens, UniProt Q9BY41); assay: Inhibition of human recombinant HDAC8 expressed in Escherichia coli using Z-L-Lys(epsilon-trifluoroacetyl)-AMC as substrate measured after 90 mins by fluorescence assay
T5 sequence (Q9BY41 whole entry): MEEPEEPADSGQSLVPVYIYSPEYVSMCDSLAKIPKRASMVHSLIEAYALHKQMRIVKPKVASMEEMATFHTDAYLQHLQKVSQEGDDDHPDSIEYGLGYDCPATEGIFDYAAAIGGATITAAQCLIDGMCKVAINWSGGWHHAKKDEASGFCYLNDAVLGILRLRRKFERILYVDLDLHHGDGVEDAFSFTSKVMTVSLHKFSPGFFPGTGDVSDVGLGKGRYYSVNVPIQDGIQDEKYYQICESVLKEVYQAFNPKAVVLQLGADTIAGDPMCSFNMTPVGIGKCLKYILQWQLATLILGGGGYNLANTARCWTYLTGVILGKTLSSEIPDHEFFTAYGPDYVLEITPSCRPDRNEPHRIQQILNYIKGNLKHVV

inhibition [1]: Active | IC50 [2]: 320 nM | Papp ([3]; MDCK, read-out: Papp): 7.3 ×10⁻⁶ cm/s | Papp ([3]; mdck): 10.6 ×10⁻⁶ cm/s | pIC50 [6]: 8.19 | inhibition [7]: Active | pIC50 (Histone deacetylase 2): 7.18 | IC50 [9]: 480 nM | IC50 [10]: 270 nM | inhibition [12]: Active | pIC50 [13]: 6.55 | inhibition [14]: Active | IC50 [16]: 350 nM | inhibition [17]: Active | inhibition [18]: Active | Papp [20]: 8.2 ×10⁻⁶ cm/s and 20 ×10⁻⁶ cm/s | pIC50 (Histone deacetylase 1): 7.60 | pIC50 (Histone deacetylase 8): 5.56
SMILES: CN(C)c1ccc(C(=O)N(CCCCCC(=O)NO)CC(=O)NCc2ccccc2)cc1
pIC50 (A2780): 6.33 | Activity (CAL-27 [4]): Non-Toxic | pIC50 [5]: 5.95 | inhibition [8]: Dose-dependent effect | inhibition [11]: Dose-dependent effect | pIC50 (A2780cisR): 5.79 | Activity [15]: Non-Toxic | pIC50 (CAL-27 [19]): 6.36
